From US9408817B2, “Methods for detecting inflammatory bowel disease in a feline” (Hill's Pet Nutrition, Inc., priority 2005, dated 2016)

Tests used:
Assay type in all cases: cell-based
IFN-γ = test: cytokine expression by RT-PCR in PHA-stimulated lymphocytes: IFN-γ; conditions: PHA + 12.5 μM, healthy cats (no PHA) = 1
Experimental: (§1) Lymphocytes are obtained from the blood of healthy cats and cats with IBD as described in Example 1 and then treated with DHA or EPA also as described in Example 1. Ribonucleic acid (RNA) is extracted from all samples, and real time polymerase chain reaction (RT-PCR) is performed to examine the changes in the level of expression of the following cytokines: interleukins 1α, 1β, 2, 6, and 10 (IL-1α, IL-1β, IL-2, IL-6, and IL-10), macrophage inhibitory factor (MIF), interferon gamma (IFN-γ), and transforming growth factor beta (TGF-β).

[1] = tested on: lymphocytes obtained from the blood of healthy cats and cats with IBD; test: in vitro lymphocyte proliferation assay (BrdU ELISA, PHA-stimulated); conditions: 40 h
Experimental: The study utilizes eleven healthy cats and eleven cats with IBD, The cats with IBD are diagnosed by an intestinal biopsy, and have a history of chronic diarrhea. For six weeks, all cats are fed a nutritionally adequate dry food indicated for gastrointestinal distress. Blood is drawn from all cats at four, five, and six weeks. Samples with equal amounts of lymphocytes are used in an in vitro lymphocyte proliferation assay.
More specifically, 4.5 ml blood is mixed with 4.5 ml HBSS (Hank's Balanced Salt Solution)+25 mM HEPES. 4 ml of Ficoll-Paque Plus (Amersham) are slowly injected under the diluted blood. The mixture is centrifuged for twenty minutes at 500 g at 25° C. The upper layer is discarded. The lymphocytes are transferred into a clean tube, resuspended in 6 ml of HBSS+25 mM HEPES, and then centrifuged for ten minutes at 200 g at 25° C. The supernatant is discarded, and the lymphocytes are washed with 6 ml of HBSS. This centrifugation and wash step is repeated two more times. The washed lymphocytes are then resuspended in 5 ml of AIM medium (Invitrogen). Samples with 200,000 lymphocytes in 100 μl of AIM medium are used for the lymphocyte proliferation assay.
The lymphocyte proliferation assay is performed utilizing Amersham's Biotrak cell proliferation ELISA system, version 2. Lymphocyte samples are incubated in a 96-well plate with 7 μg/ml PHA (phytohemagglutinin) in the absence or presence of 12.5 μM and 25 μM DHA or EPA in a 37° C. incubator with 5% CO2 and 90% humidity for forty hours. After that, 20 μl of 100 μM BrdU is added, and the samples are incubated for two hours at 37° C. The plates are then removed from the incubator and centrifuged at 300 g for ten minutes at 25° C. The medium is removed by tapping and blotting, and the cells are dried in a chemical fume hood for at least fifteen minutes. 200 μl of fixative is added to every well and the plate is incubated for thirty minutes at room temperature. The cell fixative is removed by tapping and blotting. 200 μl of blocking buffer are added to every well, and the plate is incubated for thirty minutes at room temperature. The blocking buffer is removed by tapping and blotting, and 100 μl of anti-BrdU working solution is added to each well and incubated for ninety minutes at room temperature. The anti-BrdU solution is removed by tapping and blotting, and each well is rinsed three times with 300 μl washing solution. 100 μl 3.3′,5,5′-tetamethylbenzidine is added to each well and incubated for ten minutes or until color intensity is achieved. 25 μl 1M sulfuric acid is added to stop the reaction, and the plate is read on a fusion microplate reader (PerkinElmer) within five minutes.

IL-6 = test: cytokine expression by RT-PCR in PHA-stimulated lymphocytes: IL-6; conditions: PHA + 12.5 μM, healthy cats (no PHA) = 1
Experimental: as §1

IL-2 = test: cytokine expression by RT-PCR in PHA-stimulated lymphocytes: IL-2; conditions: PHA + 12.5 μM, healthy cats (no PHA) = 1
Experimental: as §1

TGF-β = test: cytokine expression by RT-PCR in PHA-stimulated lymphocytes: TGF-β; conditions: PHA + 12.5 μM, healthy cats (no PHA) = 1
Experimental: as §1

IL-1β = test: cytokine expression by RT-PCR in PHA-stimulated lymphocytes: IL-1β; conditions: PHA + 12.5 μM, healthy cats (no PHA) = 1
Experimental: as §1

MIF = test: cytokine expression by RT-PCR in PHA-stimulated lymphocytes: MIF; conditions: PHA + 12.5 μM, healthy cats (no PHA) = 1
Experimental: as §1

IL-1α = test: cytokine expression by RT-PCR in PHA-stimulated lymphocytes: IL-1α; conditions: PHA + 12.5 μM, healthy cats (no PHA) = 1
Experimental: as §1

IL-10 = test: cytokine expression by RT-PCR in PHA-stimulated lymphocytes: IL-10; conditions: PHA + 12.5 μM, healthy cats (no PHA) = 1
Experimental: as §1

[2] = lymphocytes of cats with IBD, 7 μg/ml PHA + 12.5 μM fatty acid
[3] = lymphocytes of cats with IBD, 7 μg/ml PHA + 25 μM fatty acid
[4] = lymphocytes of healthy cats, 7 μg/ml PHA + 12.5 μM fatty acid
[5] = lymphocytes of healthy cats, 7 μg/ml PHA + 25 μM fatty acid

Row | SMILES | IFN-γ expression (IFN-γ; cats with IBD) | IFN-γ expression (IFN-γ; healthy cats) | Lymphocyte Proliferation [1, 2] | Lymphocyte Proliferation [1, 3] | Lymphocyte Proliferation [1, 4] | Lymphocyte Proliferation [1, 5] | IL-6 expression (IL-6; cats with IBD) | IL-6 expression (IL-6; healthy cats) | IL-2 expression (IL-2; cats with IBD) | IL-2 expression (IL-2; healthy cats) | TGF-β expression (TGF-β; cats with IBD) | TGF-β expression (TGF-β; healthy cats) | IL-1β expression (IL-1β; cats with IBD) | IL-1β expression (IL-1β; healthy cats) | MIF expression (MIF; cats with IBD) | MIF expression (MIF; healthy cats) | IL-1α expression (IL-1α; cats with IBD) | IL-1α expression (IL-1α; healthy cats) | IL-10 expression (IL-10; cats with IBD) | IL-10 expression (IL-10; healthy cats)
1 | CC/C=C\C/C=C\C/C=C\C/C=C\C/C=C\C/C=C\CCC(=O)O [DHA, docosahexaenoic acid] | 4.9 | 37.6 | 0.49 ± 0.15 | 0.45 ± 0.18 | 0.28 ± 0.19 | 0.25 ± 0.17 | 13.9 | 5.75 | 3 | 21.05 | 1.45 | 3.55 | 1.85 | 0.87 | 6.55 | 16.9 | 0.57 | 0.86 | 0.45 | 0.95
2 | CC/C=C\C/C=C\C/C=C\C/C=C\C/C=C\CCCC(=O)O [EPA, eicosapentaenoic acid] | 4.45 | 130.9 | 0.62 ± 0.27 | 0.63 ± 0.29 | 0.38 ± 0.23 | 0.37 ± 0.23 | 6.45 | 10.6 | 1.89 | 59.4 | 2.4 | 4.7 | 1.34 | 1.17 | 4.45 | 14.05 | 0.46 | 1.05 | 0.34 | 1.2
